What was measured:
[1] = test system: PTZ induced behavioral effects in mice; test: Antagonism of Pentylenetetrazole (PTZ) induced behavioral effects in mice; format: in vivo; conditions: compounds 50 to 200 mg/kg (ip), PTZ 10 to 70 mg/kg (ip)
Experimental: In good agreement with the above pharmacological properties, GS, GP, GL and PG, at doses of 50 to 200 mg/kg, intraperitoneal (ip), in mice antagonized all the behavioral effects (in mice) corresponding to the symptoms, in humans, announcing the development of the neurodegenerative and neurodevelopmental diseases, i.e., anxiety, fear, social disconnection, agressivity, compulsive reactions, hypermotility, stereotypic activity, pain, seizures and lethargy, appearing at various degrees according to the amplitude of the Glutamate/GABA imbalance and to the brain regions (Basal Ganglia, Hippocampus, Cortex) affected by the above imbalance. Indeed, all the above behavioral effects (obtained, in mice, by administration of the GABAergic antagonist Pentylenetetrazole (PTZ) at 10 to 70 mg/kg, (ip): with 10 to 40 mg/kg (ip) giving fear, anxiety, social disconnection, and agressivity, hypermotility and stereotypic activity—the latter being better expressed by previous (reserpine induced) hypersensibilisation of the brain DA receptors—and seizures (obtained at 50 to 70 mg/kg (ip) of PTZ), were antagonized by GS, GP, GL, and PG at 50 to 200 mg/kg (ip).

Rats = test: Animal models in Rats (haloperidol or reserpine catalepsy, reserpine palpebral ptosis, apomorphine and haloperidol stereotypies); format: in vivo; conditions: inferred from catalepsy, ptosis and stereotypy models
GABA receptors = test: Affinity for the GABA receptors; format: binding
Lipophilicity = format: physicochemical; conditions: more specifically for GS, GP and GL

For `CCCCC/C=C\C/C=C\CCCCCCCC(=O)NCCCC(=O)O` [GL, GABAlinoleamide], the “behavioral effects obtained by PTZ (fear, anxiety, social disconnection, agressivity, hypermotility, stereotypic activity, seizures)” value (“behavioral effects obtained by PTZ” below) [1] was “antagonized”, the “preferential brain region of action” value (Rats) was “preferentially acting in the striatum” and the “affinities for the GABA receptors” value (GABA receptors) was “low affinities”. The lipophilicities (Lipophilicity) was “high lipophilicities”.

For `CCCCCCCCCCCCCCCC(=O)NCCCC(=O)O` [GP, GABApalmitamide], the “behavioral effects obtained by PTZ” value [1] was “antagonized”, the “preferential brain region of action” value (Rats) was “preferentially acting in the striatum” and the “affinities for the GABA receptors” value (GABA receptors) was “low affinities”. The lipophilicities (Lipophilicity) was “high lipophilicities”.

With `CCCCCCCCCCCCCCCCCC(=O)NCCCC(=O)O` [GS, GABAstearamide] the “behavioral effects obtained by PTZ” value [1] was “antagonized”, the “preferential brain region of action” value (Rats) was “preferentially acting in substantia nigra” and the “affinities for the GABA receptors” value (GABA receptors) was “low affinities”. For the same molecule, the lipophilicities (Lipophilicity) was “high lipophilicities”.

In the case of `NC(=O)CCC/N=C(\c1ccc(Cl)cc1)c1cc(F)ccc1O` [PG, reference compound], the “behavioral effects obtained by PTZ” value [1] is reported as “antagonized”, the “preferential brain region of action” value (Rats) is reported as “preferentially acting in substantia nigra” and the “affinities for the GABA receptors” value (GABA receptors) is reported as “low affinities”. For the same molecule, the lipophilicities (Lipophilicity) was “high lipophilicities”.

From patent US20180235914A1, “PR[…] PHA[…] OF […] A & B AGONISTS AGAINST NEURODEGENERATIVE AND NEURODEVELOPMENTAL DISEASES” (priority 2017, published 2018)
